Assay [1] concerns the target T1, human PPARγ2 (Homo sapiens, UniProt P37231).
T1 construct: the amino acids 182 to 505 of human PPARγ2; expressed in transfected cells; host or cells: COST cells (so in the source)
T1 sequence (P37231 182-505): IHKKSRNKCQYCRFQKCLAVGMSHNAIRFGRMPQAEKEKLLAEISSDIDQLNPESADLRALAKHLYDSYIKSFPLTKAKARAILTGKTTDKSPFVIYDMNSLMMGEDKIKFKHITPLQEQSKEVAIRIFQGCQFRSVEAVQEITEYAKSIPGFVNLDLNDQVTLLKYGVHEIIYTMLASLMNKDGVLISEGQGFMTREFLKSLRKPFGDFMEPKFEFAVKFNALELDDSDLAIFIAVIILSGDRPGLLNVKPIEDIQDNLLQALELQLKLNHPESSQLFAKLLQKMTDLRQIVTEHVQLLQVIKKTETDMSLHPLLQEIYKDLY
Briefly: PPARγ activation activity, Gal4-PPARγ2 LBD chimera luciferase transfection assay in COST cells. The class given is cell-based. As to conditions: Gal4 (aa 1-147)/human PPARγ2 LBD (aa 182-505) chimera, luciferase reporter, 16 hours, rosiglitazone (3 to 10 μmol/L) = 100%, read-out: EC50 (50% effective concentration, PPARγ activation). How it is done: PPARγ Activation Activity
The agonistic activity of the compounds of the invention on PPARγ was measured based on the transfection assay using COST cells (DS Pharma Biomedical Co., Ltd., Osaka, Japan), which are the cell line derived from the kidney of the African green monkey. COST cells were cultured under 5% CO2 concentration, and DMEM medium containing 10% fetal bovine serum, glutamic acid, and antibiotics was used as a medium.
As an expression vector, a chimera in which DNA binding domain of Ga14, which is a yeast transcription factor, and ligand binding domain of human PPARγ2 are fused, i.e., a fused product between the amino acids 1 to 147 of Gal4 transcription factor and the amino acids 182 to 505 of human PPARγ2, was used. Furthermore, as a reporter vector, a firefly luciferase containing five copies of Gal4 recognition sequence in the promoter region was used. Plasmid transfection to the cells was performed according to a method which uses jetPEI (trade name, manufactured by Funakoshi Co., Ltd., Tokyo, Japan). Furthermore, β-galactosidase expression vector was employed as an internal standard.
After the transfection of the cells, the medium was replaced with a DMEM medium (containing 1% serum) added with the test compound, and the cells were further cultured for 16 hours. After that, the luciferase activity and β-galactosidase activity in the cell lysis solution were measured.
For the present test, dimethylsulfoxide (DMSO) was used for dissolution and dilution of the test compounds, and during the cell treatment, the DMSO concentration in DMEM medium (containing 1% serum) was adjusted to 0.1%. As a positive compound, rosiglitazone (trade name, manufactured by ALEXIS Corporation, Switzerland) was used. The percentage (%) of the luciferase activity of the each test compound (1 to 30 μmol/L) was calculated when the luciferase activity of rosiglitazone (3 to 10 μmol/L) is 100% and the luciferase activity in the absence of the test compound is 0%. The 50% effective concentration of the test compound (EC50, 50% effect concentration) was calculated by using SAS Preclinical Package Ver 5.0 (trade name, manufactured by SAS institute Japan Co., Tokyo, Japan), which is a statistical analysis program.
On the technique in general: In a reporter assay the amount or activity of a reporter protein is the signal.

In assay [2] the target is T2, angiotensin II type 1 receptor (Oryctolagus cuniculus, UniProt P34976).
T2 construct: By using a specimen of isolated rabbit blood vessels; from tissue; host or cells: rabbit thoracic aorta ring (New Zealand White, male)
T2 sequence (P34976 1-359): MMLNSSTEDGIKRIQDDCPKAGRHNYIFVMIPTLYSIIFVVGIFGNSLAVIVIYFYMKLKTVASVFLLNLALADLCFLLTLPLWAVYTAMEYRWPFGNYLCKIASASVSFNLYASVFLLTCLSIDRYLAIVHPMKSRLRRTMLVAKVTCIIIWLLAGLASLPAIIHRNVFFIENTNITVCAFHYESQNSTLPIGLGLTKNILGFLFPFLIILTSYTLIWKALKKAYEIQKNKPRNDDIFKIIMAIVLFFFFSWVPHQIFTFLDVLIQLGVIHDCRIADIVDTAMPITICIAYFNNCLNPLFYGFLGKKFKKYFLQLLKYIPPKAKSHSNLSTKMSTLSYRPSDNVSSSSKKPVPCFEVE
Briefly: Angiotensin II antagonistic activity in isolated rabbit blood vessels (angiotensin II-induced contraction of thoracic aorta ring). The following applies: angiotensin II (10 nM)-induced contraction, compound 1 nmol/L to 10 μmol/L, 37° C., read-out: IC50 (50% inhibition concentration of angiotensin II-induced contraction). From the text: Angiotensin II Antagonistic Activity in Isolated Rabbit Blood Vessels
By using a specimen of isolated rabbit blood vessels, antagonistic activity of the compounds of the invention against angiotensin II type 1 receptor was estimated from a dose-response curve of angiotensin II-induced blood vessel contraction. Specifically, the specimen of thoracic aorta ring of a rabbit (New Zealand White: male, 2.4 to 3.0 kg) was suspended in a magnus bath filled with Krebs-Henseleite buffer (composition: 118 mM NaCl, 4.7 mM KCl, 2.55 mM CaCl2, 1.18 mM MgSO4, 1.18 mM KH2PO4, 24.88 mM NaHCO3, and 11.1 mM D-glucose), and angiotensin II (10 nM)-induced contraction was obtained in the presence of the compounds of each example (1 nmol/L to 10 μmol/L). During the measurement, the inside temperature of the magnus bath was maintained at 37° C. and the bath was continuously ventilated with a sufficient amount of mixed gas (95% O2 and 5% CO2). The angiotensin II-induced contraction was converted into a relative value (%) that is based on the angiotensin II (10 nM)—induced contraction in the absence of the compounds of each example. From the concentration-response curve obtained therefrom, 50% inhibition concentration (IC50 value) was calculated by using SAS Preclinical Package Ver 5.0 (trade name, manufactured by SAS institute Japan Co., Tokyo, Japan), which is a statistical analysis program.

In the case of `CCCCc1nc(C)nc(OCC(=O)OCC)c1Cc1ccc(-c2ccccc2-c2noc(=O)[nH]2)cc1` [Example 1, ethyl 2-{{6-butyl-2-methyl-5-{[2′-(5-oxo-4,5-dihydro-1,2,4-oxadiazol-3-yl)-[1,1′-biphenyl]-4-yl]methyl}pyrimidin-4-yl}oxy}acetate], in assay [1], the EC50 was 1050 nM. In addition, the IC50 in assay [2] was 810 nM.
With `CCCCc1nc(C)nc(OCC(=O)O)c1Cc1ccc(-c2ccccc2-c2noc(=O)[nH]2)cc1` [Example 2, 2-{{6-butyl-2-methyl-5-{[2′-(5-oxo-4,5-dihydro-1,2,4-oxadiazol-3-yl)-[1,1′-biphenyl]-4-yl]methyl}pyrimidin-4-yl}oxy}acetic acid], the IC50 in assay [2] came out at 230 nM.
As to `CCCCc1nc(C)nc(OCC(=O)NCC)c1Cc1ccc(-c2ccccc2-c2noc(=O)[nH]2)cc1` [Example 4, 2-{{6-butyl-2-methyl-5-{[2′-(5-oxo-4,5-dihydro-1,2,4-oxadiazol-3-yl)-[1,1′-biphenyl]-4-yl]methyl}pyrimidin-4-yl}oxy}-N-ethylacetamide], the IC50 in assay [2] worked out at 290 nM.
Still for that read-out and setting: the figure for `CCCCc1nc(C)nc(OCC(=O)N(CC)CC)c1Cc1ccc(-c2ccccc2-c2noc(=O)[nH]2)cc1` [Example 5, 2-{{6-butyl-2-methyl-5-{[2′-(5-oxo-4,5-dihydro-1,2,4-oxadiazol-3-yl)-[1,1′-biphenyl]-4-yl]methyl}pyrimidin-4-yl}oxy}-N,N-diethylacetamide] is 60 nM.
`CCCCc1nc(C)nc(OCCCC(=O)OCC)c1Cc1ccc(-c2ccccc2-c2noc(=O)[nH]2)cc1` [Example 6, ethyl 4-{{6-butyl-2-methyl-5-{[2′-(5-oxo-4,5-dihydro-1,2,4-oxadiazol-3-yl)-[1,1′-biphenyl]-4-yl]methyl}pyrimidin-4-yl}oxy}butanoate]: in assay [1], the EC50 is 870 nM. Besides, in assay [2], the IC50 is 130 nM.
In the case of `CCCCc1nc(C)nc(OCCO)c1Cc1ccc(-c2ccccc2-c2noc(=O)[nH]2)cc1` [Example 15, 3-{4′-{[4-butyl-6-(2-hydroxyethoxy)-2-methylpyrimidin-5-yl]methyl}-[1,1′-biphenyl]-2-yl}-1,2,4-oxadiazol-5(4H)-one], the EC50 in assay [1] turned out to be 1320 nM. For the same molecule, in assay [2], the IC50 was 770 nM.
Turning to `CCCCc1nc(C)nc(OCC(C)=O)c1Cc1ccc(-c2ccccc2-c2noc(=O)[nH]2)cc1` [Example 22, 3-{4′-{[4-butyl-2-methyl-6-(2-oxopropoxy)pyrimidin-5-yl]methyl}-[1,1′-biphenyl]-2-yl}-1,2,4-oxadiazol-5(4H)-one], in assay [1], the EC50 turned out to be 950 nM. Moreover, the IC50 in assay [2] amounted to 100 nM.
For the molecule `CCCCc1nc(C)nc(OCCCCOC)c1Cc1ccc(-c2ccccc2-c2noc(=O)[nH]2)cc1` [Example 23, 3-{4′-{[4-butyl-6-(4-methoxybutoxy)-2-methylpyrimidin-5-yl]methyl}-[1,1′-biphenyl]-2-yl}-1,2,4-oxadiazol-5(4H)-one], in assay [1], the EC50 came to 710 nM.
Still for that read-out and setting: the figure for `CCCCc1nc(C)nc(OCC2OCCO2)c1Cc1ccc(-c2ccccc2-c2noc(=O)[nH]2)cc1` [Example 24, 3-{4′-{{4-[(1,3-dioxolan-2-yl)methoxy]-6-butyl-2-methylpyrimidin-5-yl}methyl}-[1,1′-biphenyl]-2-yl}-1,2,4-oxadiazol-5(4H)-one] is 1380 nM; for `CCCCc1nc(C)nc(OC(C(=O)OC)c2ccccc2)c1Cc1ccc(-c2ccccc2-c2noc(=O)[nH]2)cc1` (stereo not shown) [Example 25, methyl 2-{{6-butyl-2-methyl-5-{[2′-(5-oxo-4,5-dihydro-1,2,4-oxadiazol-3-yl)-[1,1-biphenyl]-4-yl]methyl}pyrimidin-4-yl}oxy}-2-phenylacetate] it is 730 nM.
Regarding `CCCCc1nc(C)nc(OC(Cc2ccccc2)C(=O)O)c1Cc1ccc(-c2ccccc2-c2noc(=O)[nH]2)cc1` (stereo not shown) [Example 28, 2-{{6-butyl-2-methyl-5-{[2′-(5-oxo-4,5-dihydro-1,2,4-oxadiazol-3-yl)-[1,1′-biphenyl]-4-yl]methyl}pyrimidin-4-yl}oxy}-3-phenylpropionic acid], the IC50 in assay [2] came out at 640 nM.
With `CCCCc1nc(C)nc(OCC(=O)N2CCCC2)c1Cc1ccc(-c2ccccc2-c2noc(=O)[nH]2)cc1` [Example 29, 3-{4′-{{4-butyl-2-methyl-6-[2-oxo-2-(pyrrolidin-1-yl)ethoxy]pyrimidin-5-yl}methyl}-[1,1′-biphenyl]-2-yl}-1,2,4-oxadiazof-5 (4H)-one], the EC50 in assay [1] is 2080 nM.
Consider `CCCCc1nc(C)nc(OCc2nc(-c3ccc(C)cc3)oc2C)c1Cc1ccc(-c2ccccc2-c2noc(=O)[nH]2)cc1` [Example 32, 3-{4′-{{4-butyl-2-methyl-6-{[5-methyl-2-(p-tolyl)oxazol-4-yl]methoxy}pyrimidin-5-yl}methyl}-[1,1′-biphenyl]-2-yl}-1,2,4-oxadiazol-5(4H)-one], for which the EC50 in assay [1] was determined as 380 nM.
Still for that read-out and setting: the figure for `CCCCc1nc(C)nc(OC2CCC(O)CC2)c1Cc1ccc(-c2ccccc2-c2noc(=O)[nH]2)cc1` (stereo not shown) [Example 34, 3-{4′-{{4-butyl-6-[(4-hydroxycyclohexyl)oxy]-2-methylpyrimidin-5-yl]methyl}-[1,1′-biphenyl]-2-yl}-1,2,4-oxadiazol-5 (4H)-one] is 1360 nM; for `CCCCc1nc(C)nc(OC2CCC(=O)CC2)c1Cc1ccc(-c2ccccc2-c2noc(=O)[nH]2)cc1` [Example 35, 3-{4′-{{4-butyl-2-methyl-6-[(4-oxocyclohexyl)oxy]pyrimidin-5-yl}methyl}-[1,1′-biphenyl]-2-yl}-1,2,4-oxadiazol-5(4H)-one] it is 1530 nM; for `CCCCc1nc(C)nc(OCCc2ccc(OCCOC)c(OC)c2)c1Cc1ccc(-c2ccccc2-c2noc(=O)[nH]2)cc1` [Example 36, 3-{4′-{{4-butyl-6-[3-methoxy-4-(2-methoxyethoxy)phenethoxy]-2-methylpyrimidin-5-yl}methyl}-[1,1′-biphenyl]-2-yl}-1,2,4-oxadiazol-5 (4H)-one] it is 630 nM.
For `CCCCCc1nc(C)nc(OCCOC)c1Cc1ccc(-c2ccccc2-c2noc(=O)[nH]2)cc1` [Example 37, 3-{4′-{[4-(2-methoxyethoxy)-2-methyl-6-pentylpyrimidin-5-yl]methyl}-[1,1′-biphenyl]-2-yl}-1,2,4-oxadiazol-5(4H)-one], the EC50 in assay [1] worked out at 840 nM.
Same read-out and setting: the figure for `CCCc1nc2c(C)cc(-c3nc4ccccc4n3C)cc2n1Cc1ccc(-c2ccccc2C(=O)O)cc1` [telmisartan, reference compound] is 1000 to 5000 nM.

The values are drawn from patent US20120322819A1, “COMPOUND CONTAINING A NOVEL 4-ALKOXYPYRIMIDINE STRUCTURE AND MEDICINE CONTAINING SAME” (KOWA COMPANY, LTD., priority 2010, published 2012).
